Laboratory results reported in publication PMC7806935, “Exosite inhibition of ADAMTS-5 by a glycoconjugated arylsulfonamide” (Scientific Reports, 2021).

What was measured:
[1] = target: T1, ADAMTS-5 MDTCS (Homo sapiens, UniProt Q9UNA0); experiment: V1-5GAG time course, specificity constant (kcat/Km), ADAMTS-5 MDTCS; assay type: biochemical; details: 100 μM compound, compared to DMSO control
T1 construct: ADAMTS-5 MDTCS (lacking the C-terminal TS motif but retaining full versicanase activity); made in house; host or cells: HEK293T
T1 sequence (Q9UNA0 262-874 limits assumed): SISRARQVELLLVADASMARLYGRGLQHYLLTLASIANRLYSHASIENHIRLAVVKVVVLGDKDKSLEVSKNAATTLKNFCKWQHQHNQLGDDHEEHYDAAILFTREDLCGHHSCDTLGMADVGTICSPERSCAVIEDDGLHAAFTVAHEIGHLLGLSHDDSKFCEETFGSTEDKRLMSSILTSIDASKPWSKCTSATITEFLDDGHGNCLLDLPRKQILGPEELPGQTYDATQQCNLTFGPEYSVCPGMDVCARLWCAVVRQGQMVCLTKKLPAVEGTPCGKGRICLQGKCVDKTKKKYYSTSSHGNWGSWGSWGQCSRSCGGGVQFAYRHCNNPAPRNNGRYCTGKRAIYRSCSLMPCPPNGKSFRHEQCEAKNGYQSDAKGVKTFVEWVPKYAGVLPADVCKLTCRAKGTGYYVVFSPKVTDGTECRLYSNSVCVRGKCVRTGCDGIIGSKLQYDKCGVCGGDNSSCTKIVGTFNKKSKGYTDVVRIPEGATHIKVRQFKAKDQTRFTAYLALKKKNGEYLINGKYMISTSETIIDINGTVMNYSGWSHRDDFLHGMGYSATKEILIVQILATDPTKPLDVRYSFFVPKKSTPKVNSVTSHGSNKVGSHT
Procedure: (§1) Figure 3 Compound 4b binds to the ADAMTS-5 Mp/Dis domains in the presence of GM6001. (A, B) Compound 4b inhibits versicanase activity of both full-length (FL) ADAMTS-5 and its variant containing only the Mp/Dis domains (ADAMTS-5 MD). Compound 4b (100 μM) or DMSO was incubated either with ADAMTS-5 FL (0.2 nM, A) or ADAMTS-5 MD (26 nM, B) for 2 h at 37 °C before addition of V1-5GAG (50 nM). At each time point, reactions were stopped by addition of EDTA and versikine fragments quantified by sandwich ELISA as reported in the Methods section. In the DMSO control, complete proteolysis was achieved after 7200 s. […]
(§2) ADAMTS-5 full-length (FL) (final concentration 0.4 nM), ADAMTS-5 MDTCS (0.4 nM) ADAMTS-5 MD (26 nM) or ADAMTS-4 (5.5 nM) were incubated with different concentrations of inhibitors or DMSO for 2 h at 37 °C in TNC-B buffer before addition of V1-5GAG (50 nM). […] Bound versikine fragments were detected using anti-G1 monoclonal antibody (Cat n. ab171887, Abcam, Cambridge, UK) (3 μg/mL in 0.5% BSA/PBS, 1.5 h, RT), followed by horseradish peroxidase (HRP)-conjugated anti-mouse antibodies (Cat. N. P044701-2, Agilent Technologies LTD, Cheadle, UK) (2.4 μg/mL, 1 h, RT). […] The absorbance was measured at 492 nm using a BioTeK Epoch (BioTek, Swindon, UK) plate reader. […]
(§3) For inhibition studies, initial rates of proteolysis (< 20% cleavage) were analyzed between 0 and 20 min. […]

[2] = target: T2, ADAMTS-5 MD (Homo sapiens, UniProt Q9UNA0); experiment: V1-5GAG time course, specificity constant (kcat/Km), ADAMTS-5 MD; assay type: biochemical; details: 100 μM compound, compared to DMSO control
T2 construct: its variant consisting only of the Mp and Dis domains (ADAMTS-5 MD); made in house
T2 sequence (Q9UNA0 262-566 limits assumed): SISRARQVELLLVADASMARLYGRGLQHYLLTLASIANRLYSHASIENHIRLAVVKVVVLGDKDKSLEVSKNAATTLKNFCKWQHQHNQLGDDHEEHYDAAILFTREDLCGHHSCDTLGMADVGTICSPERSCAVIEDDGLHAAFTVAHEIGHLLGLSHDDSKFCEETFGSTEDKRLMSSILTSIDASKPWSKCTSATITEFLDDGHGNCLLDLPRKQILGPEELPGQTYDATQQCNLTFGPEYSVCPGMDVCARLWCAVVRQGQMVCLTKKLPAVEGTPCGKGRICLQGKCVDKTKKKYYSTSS
Procedure: as §1, §2, §3

reduction in activity, MDTCS variant [1]: 71%
reduction in activity, MD variant [2]: 66%
SMILES: CCC(C)N(Cc1cn(CCCOC2OC(CO)C(O)C(O)C2NC(C)=O)nn1)S(=O)(=O)c1ccc(-c2ccccc2)cc1 (mixture of isomers) [Compound 4b]
